Test results as given in US12319652B2, “Salts and solid forms of (R)-1-(5-methoxy-1H-indol-1-yl)-N,N-dimethylpropan-2-amine” (priority 2021, dated 2025).

Columns and labels:
[1] = Solubility determinations in SIF buffers (FaSSIF, FeSSIF, FaSSGF); type: physicochemical; settings: for XRPD (dried) / XRPD (wet): solid residue
Method: At this stage ca. 1 g of each front-runner salt form was prepared. Salt forms that offered significant solubility and stability advantages over the non-ionized API were prioritized. […] Scale Up
The solubility of the salts below was determined in FaSSIF, FeSSIF and FaSSGF by reference to the calibration curve of amorphous compound 1.
Separate portions of compound 1 were weighed out into aluminum boats and were charged to the relevant volumetric flasks. Solutions were made to volume with 1 to 1 (v/v) acetonitrile/purified water to give calibrants of known API concentrations and analyzed by HPLC, suitable to determine the concentration of compound 1 free base in the SIF buffer solubility study.
Each sample (150 mg) was suspended in the relevant SIF buffer (5.0 ml), to give a concentration of 30 mg/ml and maintain at 37° C. for 24 h. The pH was adjusted using 1 M HCl or 1 M NaOH, to ensure that the suspension remains in range.
Sample (1 ml) of the well-stirred representative suspensions was obtained at 1 h, 3 h, 6 h and 24 h and the pH was recorded. The pH of the bulk suspension was re-adjusted when necessary. The obtained sample from each vial was centrifuged, and the supernatant was analysed by HPLC (note, the analyte was diluted, when outside of the calibration range); XRPD analysis was performed on the wet sample pellet for evidence of form change, as well as on the oven-dried pellet (undervacuum at 40° C.).

[2] = Dynamic vapor sorption (DVS); type: physicochemical
Method: There are two main methods to use, one is by time where the equilibration is given by a fixed time, i.e., 1 hour per step and is appropriate for an unknown phase. The second, is by mass per time unit (dm/dt) of 0.002%/min; that is when the difference in weight is less than 0.002%, the instrument moves onto the next step. For unknown hygroscopicity, the method by time is indicated because it gives an idea of water affinity without wasting much time. Ideally the analyses are repeated using the mass equilibration method to confirm. By experience for hygroscopic samples, the analysis can continue for days. For non-hygroscopic samples the difference between the two methods may not be significant.
Consequently, amorphous batch 1 was analyzed by the fixed time method and once compound 1 fumarate crystalline polymorphic Form A was generated the analyses was repeated as mass per unit time equilibrated @dm/dt ([…]) and is given below (refer to FIG. 12).
(§1) The moisture sorption properties of the feed API were analysed by DVS Intrinsic instrument (Surface Measurement System). Approximately 20 to 50 mg of API was weighed onto an aluminium pan and loaded into the instrument equilibrated at 25° C. The sample was equilibrated under a dry atmosphere (0% relative humidity) for 60 minutes, before increasing the humidity from 0% to 30% at 5%4 step increment and from 30% to 90% at 10% step increment. A desorption cycle was also applied from 90% to 30% (10% step decrement) and from 30% to 0% (5% step decrement). A rate of change in mass per time unit (dm/dt) of 0.002%/min was set as the equilibrium parameter. Kinetic and isotherm graphs were calculated.
Specimens were equilibrated at 0% RH for 60 min, prior to DVS analyses (stepped increment % RH up to 90% RH and stepped decrement % RH down to 0% RH.
as §1, with “5%” for “5%4”

[3] = type: physicochemical; settings: 40° C./75% RH, 10-day time point
Method: Equilibrium Humidity Evaluation (40° C./75% RH for 10 Days)
100 mg portions of compound 1 salts (for inputs see table below) were placed in the relevant open vials. The powders were finely divided and distributed evenly over the base of the vial, such that equal material coverage across the panel was observed. These samples were then maintained 40°C. under 75% RH. The samples were sub-sampled at intervals of 5 and 10 days and analysed by ^1H NMR, HPLC, XRPD, DSC, TGA and PLM, for evidence of phase change or chemical degradation (FIG. 269-297).

[4] = FaSSGF (ph 1.6), t = 1 h@37° C.
[5] = FaSSGF (ph 1.6), t = 3 h@37° C.
[6] = FaSSGF (ph 1.6), t = 6 h@37° C.
[7] = FaSSGF (ph 1.6), t = 24 h @37° C.
[8] = FaSSIF (ph 6.5), t = 1 h@37° C.
[9] = FaSSIF (ph 6.5), t = 3 h@37° C.
[10] = FaSSIF (ph 6.5), t = 6 h@37° C.
[11] = FaSSIF (ph 6.5), t = 24 h @37° C.
[12] = FeSSIF (ph 5.0), t = 1 h@37° C.
[13] = FeSSIF (ph 5.0), t = 3 h@37° C.
[14] = FeSSIF (ph 5.0), t = 6 h@37° C.
[15] = FeSSIF (ph 5.0), t = 24 h @37° C.

In the case of COc1ccc2c(ccn2C[C@@H](C)N(C)C)c1.O=C(O)c1ccccc1 [Compound 1 · Benzoate], the Solubility [1, 4] is reported as 28.74 mg/mL, the Solubility [1, 5] is reported as 26.85 mg/mL and the Solubility [1, 6] is reported as 26.33 mg/mL. It also gave a Solubility [1, 7] of 25.59 mg/mL, a Solubility [1, 8] of over 30 mg/mL and a Solubility [1, 9] of over 30 mg/mL. For the same molecule, the Solubility [1, 10] was over 30 mg/mL, the Solubility [1, 11] was over 30 mg/mL and the Solubility [1, 12] was over 30 mg/mL. The Solubility [1, 13] was over 30 mg/mL, the Solubility [1, 14] was over 30 mg/mL and the Solubility [1, 15] was over 30 mg/mL. The “XRPD (dried)” value [1, 4] was “Benzoic acid”, the “XRPD (wet)” value [1, 4] was “Benzoic acid” and the “XRPD (dried)” value [1, 5] was “Benzoic acid”. The “XRPD (wet)” value [1, 5] was “Benzoic acid”, the “XRPD (dried)” value [1, 6] was “Benzoic” and the “XRPD (wet)” value [1, 6] was “Benzoic acid”. The “XRPD (dried)” value [1, 7] was “Benzoic” and the “XRPD (wet)” value [1, 7] was “Benzoic”.
With COc1ccc2c(ccn2C[C@@H](C)N(C)C)c1.O=C(O)/C=C\C(=O)O [compound 1 maleate] the DVS isotherm uptake [2] was “ca. 3.5 % w/w”, the “DVS 0 to 90 to 0% RH (dm/dt <0.002%)” value ([2]; 0.0% RH, desorption) was −0.07% and the “DVS 0 to 90 to 0% RH (dm/dt <0.002%)” value ([2]; 0.0% RH, sorption) was “DVS 0 to 90 to 0% RH (dm/dt <0.002%): 0.0 (0.00%), 5.0”. For the same molecule, the “DVS isotherm type / hygroscopicity” value ([2]; 0 to 90 to 0% RH) was “hygroscopic”, the “DVS 0 to 90 to 0% RH (dm/dt <0.002%)” value ([2]; 5.0% RH, desorption) was −0.03% and the “DVS 0 to 90 to 0% RH (dm/dt <0.002%)” value ([2]; 5.0% RH, sorption) was 0.02%. The “DVS 0 to 90 to 0% RH (dm/dt <0.002%)” value ([2]; 10.0% RH, desorption) was 0.03%, the “DVS 0 to 90 to 0% RH (dm/dt <0.002%)” value ([2]; 10.0% RH, sorption) was 0.05% and the “DVS 0 to 90 to 0% RH (dm/dt <0.002%)” value ([2]; 15.0% RH, desorption) was 0.09%. For the same molecule, the “DVS 0 to 90 to 0% RH (dm/dt <0.002%)” value ([2]; 15.0% RH, sorption) was 0.08%, the “DVS 0 to 90 to 0% RH (dm/dt <0.002%)” value ([2]; 20.0% RH, desorption) was 0.15% and the “DVS 0 to 90 to 0% RH (dm/dt <0.002%)” value ([2]; 20.0% RH, sorption) was 0.11%. For the same molecule, the “DVS 0 to 90 to 0% RH (dm/dt <0.002%)” value ([2]; 25.0% RH, desorption) was 0.22%, the “DVS 0 to 90 to 0% RH (dm/dt <0.002%)” value ([2]; 25.0% RH, sorption) was 0.14% and the “DVS 0 to 90 to 0% RH (dm/dt <0.002%)” value ([2]; 30.0% RH, desorption) was 0.30%. The “DVS 0 to 90 to 0% RH (dm/dt <0.002%)” value ([2]; 30.0% RH, sorption) was 0.18%, the “DVS 0 to 90 to 0% RH (dm/dt <0.002%)” value ([2]; 40.0% RH, desorption) was 0.48% and the “DVS 0 to 90 to 0% RH (dm/dt <0.002%)” value ([2]; 40.0% RH, sorption) was 0.26%. The “DVS 0 to 90 to 0% RH (dm/dt <0.002%)” value ([2]; 50.0% RH, desorption) was 0.70%, the “DVS 0 to 90 to 0% RH (dm/dt <0.002%)” value ([2]; 50.0% RH, sorption) was 0.42% and the “DVS 0 to 90 to 0% RH (dm/dt <0.002%)” value ([2]; 60.0% RH, desorption) was 1.00%. The “DVS 0 to 90 to 0% RH (dm/dt <0.002%)” value ([2]; 60.0% RH, sorption) was 0.86%, the “DVS 0 to 90 to 0% RH (dm/dt <0.002%)” value ([2]; 70.0% RH, desorption) was 1.40% and the “DVS 0 to 90 to 0% RH (dm/dt <0.002%)” value ([2]; 70.0% RH, sorption) was 1.38%. The “DVS 0 to 90 to 0% RH (dm/dt <0.002%)” value ([2]; 80.0% RH, desorption) was 2.03%, the “DVS 0 to 90 to 0% RH (dm/dt <0.002%)” value ([2]; 80.0% RH, sorption) was 2.00% and the “DVS 0 to 90 to 0% RH (dm/dt <0.002%)” value ([2]; 90.0% RH, desorption) was 3.44%. For the same molecule, the “DVS 0 to 90 to 0% RH (dm/dt <0.002%)” value ([2]; 90.0% RH, sorption) was 3.44%, the “DVS desorption behaviour (hysteresis)” value ([2]; during desorption) was “small hysteresis” and the “Solubility in SIF buffers” value ([1]; FaSSIF, FeSSIF and FaSSGF, 37° C., 24 h, concentration tested 30 mg/ml) was “freely soluble”. For the same molecule, the “Change of purity profile / CP” value [3] was “reduction in CP”.
COc1ccc2c(ccn2C[C@@H](C)N(C)C)c1.O=C(O)/C=C/C(=O)O [Compound 1 · Fumarate] showed a Solubility [1, 4] of over 30 mg/mL, a Solubility [1, 5] of over 30 mg/mL and a Solubility [1, 6] of over 30 mg/mL. The Solubility [1, 7] was over 30 mg/mL, the Solubility [1, 8] was over 30 mg/mL and the Solubility [1, 9] was over 30 mg/mL. For the same molecule, the Solubility [1, 10] was over 30 mg/mL, the Solubility [1, 11] was over 30 mg/mL and the Solubility [1, 12] was over 30 mg/mL. The Solubility [1, 13] was over 30 mg/mL, the Solubility [1, 14] was over 30 mg/mL and the Solubility [1, 15] was over 30 mg/mL.
